Reference: PubChem BioAssay (NCI)
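Test compounds were applied to cells in 96-well plates for 48 hours at 5 doses. TGI: total growth inhibition.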

What was measured:
Assay in all cases: NCI anticancer screen, dose series, 48 h
786-0 renal = test system: 786-0 renal
A498 renal = test system: A498 renal
A549 NSCLC = test system: A549 NSCLC
ACHN renal = test system: ACHN renal
BT-549 breast = test system: BT-549 breast
CAKI-1 renal = test system: CAKI-1 renal
CCRF-CEM leukemia = test system: CCRF-CEM leukemia
COLO 205 colon = test system: COLO 205 colon
DU-145 prostate = test system: DU-145 prostate
EKVX NSCLC = test system: EKVX NSCLC
HCC-2998 colon = test system: HCC-2998 colon
HCT-116 colon = test system: HCT-116 colon
HCT-15 colon = test system: HCT-15 colon
HL-60(TB) leukemia = test system: HL-60(TB) leukemia
HOP-62 NSCLC = test system: HOP-62 NSCLC
HOP-92 NSCLC = test system: HOP-92 NSCLC
HS 578T breast = test system: HS 578T breast
HT29 colon = test system: HT29 colon
IGROV1 ovarian = test system: IGROV1 ovarian
K-562 leukemia = test system: K-562 leukemia
KM12 colon = test system: KM12 colon
LOX IMVI melanoma = test system: LOX IMVI melanoma
M14 melanoma = test system: M14 melanoma
MALME-3M melanoma = test system: MALME-3M melanoma
MCF7 breast = test system: MCF7 breast
MDA-MB-231 breast = test system: MDA-MB-231 breast
MDA-MB-435 = test system: MDA-MB-435
MDA-N = test system: MDA-N
MOLT-4 leukemia = test system: MOLT-4 leukemia
NCI-H226 lung = test system: NCI-H226 lung
NCI-H23 lung = test system: NCI-H23 lung
NCI-H460 lung = test system: NCI-H460 lung
NCI-H522 lung = test system: NCI-H522 lung
NCI/ADR-RES ovarian = test system: NCI/ADR-RES ovarian
OVCAR-3 ovarian = test system: OVCAR-3 ovarian
OVCAR-4 ovarian = test system: OVCAR-4 ovarian
OVCAR-5 ovarian = test system: OVCAR-5 ovarian
OVCAR-8 ovarian = test system: OVCAR-8 ovarian
PC-3 prostate = test system: PC-3 prostate
RPMI-8226 leukemia = test system: RPMI-8226 leukemia
RXF 393 renal = test system: RXF 393 renal
SF-268 CNS = test system: SF-268 CNS
SF-295 CNS = test system: SF-295 CNS
SF-539 CNS = test system: SF-539 CNS
SK-MEL-2 melanoma = test system: SK-MEL-2 melanoma
SK-MEL-28 melanoma = test system: SK-MEL-28 melanoma
SK-MEL-5 melanoma = test system: SK-MEL-5 melanoma
SK-OV-3 ovarian = test system: SK-OV-3 ovarian
SN12C renal = test system: SN12C renal
SNB-19 CNS = test system: SNB-19 CNS
SNB-75 CNS = test system: SNB-75 CNS
SW-620 colon = test system: SW-620 colon
T-47D breast = test system: T-47D breast
TK-10 renal = test system: TK-10 renal
U251 CNS = test system: U251 CNS
UACC-257 melanoma = test system: UACC-257 melanoma
UACC-62 melanoma = test system: UACC-62 melanoma
UO-31 renal = test system: UO-31 renal
SR leukemia = test system: SR leukemia

Measured: TGI

O=S(=O)(O)C(Cc1nc2ccccc2[nH]1)S(=O)(=O)OCCC1S(=O)(=O)OCCOS1(=O)=O (configuration not stated)
not listed: SR leukemia
> 100 µM: all other assays above

COc1ccc(-n2sc3ncc([N+](=O)[O-])cc3c2=O)cc1
not listed: A498 renal | CAKI-1 renal | HOP-92 NSCLC | K-562 leukemia | RXF 393 renal
> 100 µM: all other assays above
